According to patent US9273341B2, “Methods for treatment of bacterial infections” (THE JOHNS HOPKINS UNVIERSITY, priority 2010, dated 2016):
≈ marks a conversion by molar mass, not a printed value. Entries after “also recorded” stand apart in the source; their conditions may differ.

Tests used:
[1] = test system: M. tuberculosis mutant strain lacking LdtMt2 (ldtMt2::Tn); assay type: cell-based
LdtMt2 [2] = biological target: T1, LdtMt2 (Mycobacterium tuberculosis, UniProt O53223); assay type: biochemical, M. tuberculosis
T1 construct: initiator methionine from the pET2818 ATG codon (N); made in house; host or cells: E. coli BL21(DE3) harboring pREP4GroESL and pET2818 with the ldtMt2 fragment
T1 sequence (O53223 55-408): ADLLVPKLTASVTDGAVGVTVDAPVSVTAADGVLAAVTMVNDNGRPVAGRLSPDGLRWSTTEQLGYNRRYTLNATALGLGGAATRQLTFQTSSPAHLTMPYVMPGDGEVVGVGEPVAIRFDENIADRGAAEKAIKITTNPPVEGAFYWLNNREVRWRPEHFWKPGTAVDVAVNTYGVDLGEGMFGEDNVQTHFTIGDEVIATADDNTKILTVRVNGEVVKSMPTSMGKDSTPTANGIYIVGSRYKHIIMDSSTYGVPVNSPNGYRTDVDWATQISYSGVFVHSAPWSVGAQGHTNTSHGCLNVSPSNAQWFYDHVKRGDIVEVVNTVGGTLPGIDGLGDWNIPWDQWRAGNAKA

LdtMt2 [3] = biological target: T1, LdtMt2; assay type: binding, M. tuberculosis
[4] = test system: M. tuberculosis lacking LdtMt2 (ldtMt2::Tn); parameters: species or system Balb/C mice; settings: mouse, in vivo

Structure (SMILES)	concentration up to which LdtMt2 was not inhibited (LdtMt2 [2])	formation of covalent adducts with LdtMt2 (LdtMt2 [3])	other results
N[C@@H]1CON=C1O [D-cycloserine]	–	–	MIC [1]: 5 µg/mL (≈ 49 µM)
CC1(C)S[C@@H]2[C@H](NC(=O)[C@H](N)c3ccccc3)C(=O)N2[C@H]1C(=O)O [ampicillin]	> 5,700 μM	Adducts were not detected; also recorded: No adduct was detected	–
CO/N=C(\C(=O)N[C@@H]1C(=O)N2C(C(=O)O)=C(CSc3nc(=O)c(=O)[nH]n3C)CS[C@H]12)c1csc(N)n1 [ceftriaxone]	> 360 µM	Adducts were not detected; also recorded: No adduct was detected	–
C[C@@H](O)[C@H]1C(=O)N2C(C(=O)O)=C(S[C@@H]3CN[C@H](C(=O)Nc4cccc(C(=O)O)c4)C3)[C@H](C)[C@H]12 [ertapenem]	–	formation of covalent adducts	–
NNC(=O)c1ccncc1 [isoniazid]	–	–	bacterial burden (lung CFU) under treatment [4]: similarly effective
C[C@@H](O)[C@H]1C(=O)N2C(C(=O)O)=C(S[C@@H]3CN[C@H](C(=O)N(C)C)C3)[C@H](C)[C@H]12 [meropenem]	–	formation of covalent adducts	–
